Where a SMILES comes first, the peptide text is derived from it. [ ]: non-standard residue; d: D form. Sar = CNCC(=O)O
Columns and labels:
human OAT4 = target: T1, human OAT4 (Homo sapiens, UniProt Q9NSA0); assay: SLC transporter substrate assay, HEK293-OAT4-LV vs control HEK293-Mock-LV cells; settings: 1 min
T1 sequence (Q9NSA0 1-550): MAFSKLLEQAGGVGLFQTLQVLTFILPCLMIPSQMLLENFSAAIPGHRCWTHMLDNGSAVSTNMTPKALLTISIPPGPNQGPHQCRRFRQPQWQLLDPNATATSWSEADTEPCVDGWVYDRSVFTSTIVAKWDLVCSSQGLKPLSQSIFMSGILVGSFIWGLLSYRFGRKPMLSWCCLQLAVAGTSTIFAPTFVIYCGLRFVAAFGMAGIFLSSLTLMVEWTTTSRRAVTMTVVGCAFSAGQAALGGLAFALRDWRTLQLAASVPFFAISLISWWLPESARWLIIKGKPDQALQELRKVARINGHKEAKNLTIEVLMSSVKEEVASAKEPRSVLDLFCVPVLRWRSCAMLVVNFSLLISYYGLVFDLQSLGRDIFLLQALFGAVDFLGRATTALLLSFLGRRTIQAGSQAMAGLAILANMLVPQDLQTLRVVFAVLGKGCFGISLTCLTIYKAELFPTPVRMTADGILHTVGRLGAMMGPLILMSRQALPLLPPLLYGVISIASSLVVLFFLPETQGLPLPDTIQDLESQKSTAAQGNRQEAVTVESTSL

human OAT1 = target: T2, human OAT1 (Homo sapiens, UniProt Q4U2R8); assay: SLC transporter substrate assay, HEK293-OAT1-LV vs control HEK293-Mock-B-LV cells; settings: 2 min
T2 sequence (Q4U2R8 1-563): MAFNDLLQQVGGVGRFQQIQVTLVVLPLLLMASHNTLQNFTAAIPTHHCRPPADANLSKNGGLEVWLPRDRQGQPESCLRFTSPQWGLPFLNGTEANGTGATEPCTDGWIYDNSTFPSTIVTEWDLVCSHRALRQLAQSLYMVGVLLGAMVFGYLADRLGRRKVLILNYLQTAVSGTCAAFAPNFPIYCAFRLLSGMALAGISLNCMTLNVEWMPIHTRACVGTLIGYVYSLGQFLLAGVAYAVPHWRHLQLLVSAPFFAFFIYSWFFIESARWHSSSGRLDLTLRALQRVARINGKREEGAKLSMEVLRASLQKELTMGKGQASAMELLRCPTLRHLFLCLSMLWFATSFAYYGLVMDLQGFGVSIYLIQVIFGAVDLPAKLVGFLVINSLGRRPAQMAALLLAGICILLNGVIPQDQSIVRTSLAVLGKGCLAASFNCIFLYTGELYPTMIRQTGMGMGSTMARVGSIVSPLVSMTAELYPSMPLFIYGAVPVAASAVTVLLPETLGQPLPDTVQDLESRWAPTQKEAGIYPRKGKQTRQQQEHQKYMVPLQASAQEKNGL

human PEPT2 = target: T3, human PEPT2 (Homo sapiens, UniProt Q16348); assay: SLC transporter substrate assay, CHO-K1-PEPT2 vs control CHO-K1 cells; settings: 8 min
T3 sequence (Q16348 1-729): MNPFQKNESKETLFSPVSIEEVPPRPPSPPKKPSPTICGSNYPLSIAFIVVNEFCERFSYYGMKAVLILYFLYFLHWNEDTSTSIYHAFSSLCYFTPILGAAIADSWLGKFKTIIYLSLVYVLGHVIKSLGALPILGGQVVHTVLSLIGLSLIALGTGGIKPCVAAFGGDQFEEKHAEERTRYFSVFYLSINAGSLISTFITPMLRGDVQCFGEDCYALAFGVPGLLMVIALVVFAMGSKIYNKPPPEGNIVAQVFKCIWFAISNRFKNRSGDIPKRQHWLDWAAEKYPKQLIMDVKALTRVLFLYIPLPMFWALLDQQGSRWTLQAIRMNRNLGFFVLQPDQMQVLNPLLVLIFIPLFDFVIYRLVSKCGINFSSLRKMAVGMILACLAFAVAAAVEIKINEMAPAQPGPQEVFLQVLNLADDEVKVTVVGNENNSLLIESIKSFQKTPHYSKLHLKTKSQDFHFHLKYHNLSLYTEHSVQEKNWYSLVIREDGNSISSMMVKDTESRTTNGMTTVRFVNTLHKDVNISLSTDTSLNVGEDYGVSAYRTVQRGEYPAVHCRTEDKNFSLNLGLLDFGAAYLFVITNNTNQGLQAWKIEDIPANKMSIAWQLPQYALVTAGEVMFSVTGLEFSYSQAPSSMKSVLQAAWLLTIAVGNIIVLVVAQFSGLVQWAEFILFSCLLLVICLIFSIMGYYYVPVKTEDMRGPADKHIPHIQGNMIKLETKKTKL
Protocol: The described cells were plated onto standard 24-well tissue culture plates at densities of 5 × 10^5 cells/well. […] Before starting the experiment, the cells were prepared by removing the medium and washing the cells twice with 300 µL of assay buffer. […] The cells were lysed by adding 300 µL of 0.1N NaOH, they were incubated for 10 min at 37 °C and 100 µL samples were taken from all the wells.
The amount of protein in each well was quantified using the BCA kit for protein determination (Sigma-Aldrich, St Louis, MO, USA). Positive controls were performed using a separate 96-well plate format according to Table S8 in SI4.
(§1) SI4. Results of transporter substrate assays (SLC)
Table S8: Parameters of positive controls, control cell lines and plating for SLC transporters assays.
KH: Krebs-Henseleit buffer, HBSS: Hank's balanced salt solution, MES: 2 -(N-morpholino) ethanesulfonic acid, cGMP:
Guanosine cyclic phosphate, E3S: Estrone -3-sulfate, Gly-Sar: Glycylsarcosine, MPP+: 1-methyl-4-phenylpyridinium.
Calculation of fold accumulation values for SLC transporter substrate assays The fold accumulation value was defined as the ratio of uptake of the test substance (TS) or probe substrate into transfected and control cells. If the fold accumulation is > 2 and can be inhibited by a known inhibitor of the transporter, the test substance can be considered as a substrate of the respective transporter.
(§2) Fold accumulation = UPTTRP
• UPTTRP: accumulated amount of test substance (TS) or probe substrate in transfected cells normalized by protein content […]
• UPTCTRL: accumulated amount of test substance (TS) or probe substrate in control cells normalized by protein content […]
Positive control conducted at pH 5.0.
Gly-Sar: Glycylsarcosine.

human OCT3 = target: T4, human OCT3 (Homo sapiens, UniProt O75751); assay: SLC transporter substrate assay, HEK293-OCT3-LV vs control HEK293-Mock-LV cells; format: in vitro ADME; settings: 3 min
T4 construct: host or cells: HEK293-OCT3-LV
T4 sequence (O75751 1-556): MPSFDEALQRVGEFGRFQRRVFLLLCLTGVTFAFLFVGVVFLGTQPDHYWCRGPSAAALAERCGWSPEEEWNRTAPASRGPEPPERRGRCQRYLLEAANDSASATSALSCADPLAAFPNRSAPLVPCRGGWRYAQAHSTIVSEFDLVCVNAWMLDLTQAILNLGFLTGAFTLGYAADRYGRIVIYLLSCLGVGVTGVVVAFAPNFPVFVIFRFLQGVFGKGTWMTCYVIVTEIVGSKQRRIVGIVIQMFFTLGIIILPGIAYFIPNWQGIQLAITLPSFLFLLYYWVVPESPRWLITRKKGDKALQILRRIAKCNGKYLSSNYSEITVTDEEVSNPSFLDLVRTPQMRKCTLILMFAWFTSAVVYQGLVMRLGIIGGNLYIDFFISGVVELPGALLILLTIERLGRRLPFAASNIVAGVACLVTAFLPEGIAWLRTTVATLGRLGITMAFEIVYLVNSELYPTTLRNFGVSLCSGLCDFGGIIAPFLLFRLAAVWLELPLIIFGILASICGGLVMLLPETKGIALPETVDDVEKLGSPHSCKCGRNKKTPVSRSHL
Protocol: as §1
(§3) Human Incubation Positive control substrate/ Control Special Incubation Assay […]
(Cell line) at 37°C [min] [h] […]
into transfected and control cells.
as §2
(§4) PSMA-617 in SLC transporters.
(§5) NA: not analyzed. Test substances were considered as substrates in case of fold accumulation values > 2 combined with inhibition values higher than 50%.
4.7 Organic cation transporter OCT3
(HEK293-OCT3-LV) and control cells (HEK293-Mock-LV) applying 2- and 20-minute incubation periods, measured in SLC transporter substrate assay. […] Concentrations are nominal.
Table S16: ([α,β-3H]Nal)Lu-PSMA-617-accumulation in OCT3 transporter-expressing (HEK293-OCT3-LV) and control […]
(§6) Conditions Accumulation (pmol/mg protein)
Compound Nominal In OCT3 Fold concentration Minutes transporter In control Active accumulation
(§7) [µM] expressing cells transport
(§8) Positive control (accumulation in cpm)
MPP +: 1-methyl -4-phenylpyridinium.

human OAT2v1 = target: T5, human OAT2v1 (Homo sapiens, UniProt Q9Y694); assay: SLC transporter substrate assay, HEK293-OAT2v1-LV vs control HEK293-Mock-LV cells; format: in vitro ADME; settings: 1 min
T5 construct: host or cells: HEK293-OAT2v1-LV
T5 sequence (Q9Y694 1-546 isoform Q9Y694-2): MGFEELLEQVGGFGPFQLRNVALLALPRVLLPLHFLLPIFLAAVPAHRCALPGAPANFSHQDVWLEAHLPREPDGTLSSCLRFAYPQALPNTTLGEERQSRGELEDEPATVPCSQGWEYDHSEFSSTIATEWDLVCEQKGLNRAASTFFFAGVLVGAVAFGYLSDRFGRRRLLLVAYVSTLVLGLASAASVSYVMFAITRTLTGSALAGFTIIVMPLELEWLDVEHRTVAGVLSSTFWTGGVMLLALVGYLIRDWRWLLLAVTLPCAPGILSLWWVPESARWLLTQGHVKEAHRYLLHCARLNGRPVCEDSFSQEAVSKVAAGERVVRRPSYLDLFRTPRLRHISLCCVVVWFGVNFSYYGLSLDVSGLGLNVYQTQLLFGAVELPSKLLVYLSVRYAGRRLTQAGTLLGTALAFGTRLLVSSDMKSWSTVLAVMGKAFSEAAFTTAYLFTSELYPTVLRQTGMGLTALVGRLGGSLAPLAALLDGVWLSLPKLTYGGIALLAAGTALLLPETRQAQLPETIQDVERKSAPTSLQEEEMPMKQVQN
Protocol: as §1, §3
(Cell line) at 37°C [min] [h]
OAT2v1 cGMP (1.5) / Mock-B- Poly-D-lysine
as §2, §4, §5
4.4 Organic anion transporter OAT2v1 […]
expressed as mean (n=3) ± SD. Concentrations are nominal.
Table S13: ([α,β-3H]Nal)Lu-PSMA-617-accumulation in OAT2v1 transporter expressing (HEK293-OAT2v1-LV) and […]
as §6
Compound Nominal In OAT2v1 Fold concentration Minutes transporter In control Active accumulation
as §7, §8

[1] = positive control: Tenofovir 5 µM + Probenecid 300 µM
[2] = positive control: Tenofovir 5 µM
[3] = positive control at pH 5.0: Gly-Sar 4 µM + Cefadroxil 200 µM
[4] = positive control at pH 5.0: Gly-Sar 4 µM
[5] = positive control: MPP+ 0.02 µM + Quinidine 1000 µM
[6] = positive control: cGMP 1.82 µM + Indomethacin 300 µM

## C[C@]12CC[C@@H]3c4ccc(OS(=O)(=O)[O-])cc4CC[C@H]3[C@@H]1CCC2=O.[Na+] [E3S, estrone-3-sulfate sodium salt, reference compound]
Human OAT4; positive control: E3S 1 µM + Benzbromarone 300 µM
  Fold accumulation: 5.12
Human OAT4; positive control: E3S 1 µM
  Fold accumulation: 24.16

## C[C@H](Cn1cnc2c(N)ncnc21)OCP(=O)(O)O [Tenofovir, tenofovir, reference compound]
Human OAT1; [1]
  Accumulation in OAT1 transporter expressing cells: 372.67 cpm
  Accumulation in control cells: 77.00 cpm
  Accumulation, active transport: 295.67 cpm
  Fold accumulation: 4.84
Human OAT1; [2]
  Accumulation in OAT1 transporter expressing cells: 7739.67 cpm
  Accumulation in control cells: 85.00 cpm
  Accumulation, active transport: 7654.67 cpm
  Fold accumulation: 91.05

## CN(CC(=O)O)C(=O)CN [Gly-Sar, glycylsarcosine, reference compound] (H-Gly-[Sar]-OH)
Human PEPT2; [3]
  Accumulation in PEPT2 transporter expressing cells: 263.67 cpm
  Accumulation in control cells: 34.33 cpm
  Accumulation, active transport: 229.33 cpm
  Fold accumulation: 7.68
Human PEPT2; [4]
  Accumulation in PEPT2 transporter expressing cells: 1570.00 cpm
  Accumulation in control cells: 31.33 cpm
  Accumulation, active transport: 1538.67 cpm
  Fold accumulation: 50.11

## C[n+]1ccc(-c2ccccc2)cc1 [MPP+, 1-Methyl-4-phenylpyridin-1-ium, reference compound]
Human OCT3; [5]
  Accumulation in OCT3 transporter expressing cells: 1429.667 cpm
  Accumulation in control cells: 233.000 cpm
  Accumulation, active transport: 1196.667 cpm
  Fold accumulation: 6.14
Human OCT3; positive control: MPP+ 0.02 µM
  Accumulation in OCT3 transporter expressing cells: 10728.333 cpm
  Accumulation in control cells: 629.333 cpm
  Accumulation, active transport: 10099.000 cpm
  Fold accumulation: 17.05

## Nc1nc2c(ncn2[C@@H]2O[C@@H]3COP(=O)(O)O[C@H]3[C@H]2O)c(=O)[nH]1 [cGMP, guanosine 3′,5′-cyclic monophosphate, reference compound]
Human OAT2v1; [6]
  Accumulation in OAT2v1 transporter expressing cells: 551.67 cpm
  Accumulation in control cells: 67.67 cpm
  Accumulation, active transport: 484.00 cpm
  Fold accumulation: 8.15
Human OAT2v1; positive control: cGMP 1.82 µM
  Accumulation in OAT2v1 transporter expressing cells: 9207.33 cpm
  Accumulation in control cells: 75.00 cpm
  Accumulation, active transport: 9132.33 cpm
  Fold accumulation: 122.76
